± gives the expanded uncertainty stated by the source.
Experiment: molar heat capacity at constant pressure; xn = mol fraction of the nth substance listed
Conditions: 101.33 kPa, Liquid

CCCCCCOCCOCCOCCOCCOCCO [2-(hexyloxytetraethoxy)ethanol] + O
molar heat capacity at constant pressure [J/K/mol]
Conditions | 283 K | 288 K | 298 K | 308 K | 318 K | 328 K | 338 K
x1 = 0.00036 | 75.88 ± 0.29 | 75.76 ± 0.29 | 75.66 ± 0.29 | 75.64 ± 0.29 | 75.68 ± 0.29 | 75.77 ± 0.29 | 75.85 ± 0.29
x1 = 0.00072 | 76.25 ± 0.3 | 76.13 ± 0.3 | 76.04 ± 0.3 | 76.03 ± 0.29 | 76.07 ± 0.3 | 76.14 ± 0.3 | 76.23 ± 0.3
x1 = 0.00106 | 76.6 ± 0.3 | 76.5 ± 0.3 | 76.43 ± 0.3 | 76.42 ± 0.3 | 76.46 ± 0.3 | 76.53 ± 0.3 | 76.6 ± 0.3
x1 = 0.00146 | 77.04 ± 0.3 | 76.94 ± 0.3 | 76.92 ± 0.3 | 76.95 ± 0.3 | 76.95 ± 0.3 | 76.93 ± 0.3 | 76.96 ± 0.3
x1 = 0.00175 | 77.35 ± 0.3 | 77.33 ± 0.3 | 77.41 ± 0.3 | 77.35 ± 0.3 | 77.25 ± 0.3 | 77.18 ± 0.3 | 77.19 ± 0.3
x1 = 0.0018 | 77.46 ± 0.3 | 77.42 ± 0.3 | 77.48 ± 0.3 | 77.44 ± 0.3 | 77.35 ± 0.3 | 77.28 ± 0.3 | 77.3 ± 0.3
x1 = 0.00235 | 78.13 ± 0.3 | 78.25 ± 0.3 | 78.2 ± 0.3 | 78.06 ± 0.3 | 77.88 ± 0.3 | 77.81 ± 0.3 | 77.83 ± 0.3
x1 = 0.00281 | 78.98 ± 0.31 | 78.99 ± 0.31 | 78.74 ± 0.31 | 78.45 ± 0.3 | 78.27 ± 0.3 | 78.21 ± 0.3 | 78.27 ± 0.3
x1 = 0.00324 | 79.99 ± 0.31 | 79.7 ± 0.31 | 79.24 ± 0.31 | 78.86 ± 0.31 | 78.68 ± 0.3 | 78.63 ± 0.3 | 78.61 ± 0.3
x1 = 0.00357 | 80.51 ± 0.31 | 80.06 ± 0.31 | 79.53 ± 0.31 | 79.18 ± 0.31 | 78.99 ± 0.31 | 78.93 ± 0.31 | 78.99 ± 0.31
x1 = 0.00398 | 81 ± 0.31 | 80.46 ± 0.31 | 79.78 ± 0.31 | 79.43 ± 0.31 | 79.29 ± 0.31 | 79.25 ± 0.31 | 79.27 ± 0.31
x1 = 0.00473 | 81.76 ± 0.32 | 81.26 ± 0.32 | 80.57 ± 0.31 | 80.19 ± 0.31 | 80.01 ± 0.31 | 79.95 ± 0.31 | 79.97 ± 0.31
x1 = 0.00503 | 82.06 ± 0.32 | 81.55 ± 0.32 | 80.85 ± 0.31 | 80.47 ± 0.31 | 80.3 ± 0.31 | 80.24 ± 0.31 | 80.25 ± 0.31
x1 = 0.00543 | 82.41 ± 0.32 | 81.91 ± 0.32 | 81.22 ± 0.31 | 80.85 ± 0.31 | 80.67 ± 0.31 | 80.61 ± 0.31 | 80.57 ± 0.31
x1 = 0.00585 | 82.79 ± 0.32 | 82.27 ± 0.32 | 81.58 ± 0.32 | 81.22 ± 0.31 | 81.05 ± 0.31 | 80.99 ± 0.31 | 81.01 ± 0.31
x1 = 0.0063 | 83.1 ± 0.32 | 82.58 ± 0.32 | 81.9 ± 0.32 | 81.54 ± 0.31 | 81.37 ± 0.31 | 81.31 ± 0.31 | 81.32 ± 0.31
x1 = 0.0069 | 83.54 ± 0.32 | 83.03 ± 0.32 | 82.38 ± 0.32 | 82.04 ± 0.32 | 81.89 ± 0.32 | 81.82 ± 0.32 | 81.83 ± 0.32
x1 = 0.00752 | 84.02 ± 0.32 | 83.53 ± 0.32 | 82.92 ± 0.32 | 82.62 ± 0.32 | 82.49 ± 0.32 | 82.43 ± 0.32 | 82.46 ± 0.32
x1 = 0.00819 | 84.48 ± 0.33 | 84.03 ± 0.33 | 83.46 ± 0.32 | 83.18 ± 0.32 | 83.06 ± 0.32 | 83.02 ± 0.32 | 83.06 ± 0.32
x1 = 0.00886 | 85 ± 0.33 | 84.56 ± 0.33 | 84.02 ± 0.33 | 83.75 ± 0.33 | 83.64 ± 0.32 | 83.61 ± 0.32 | 83.65 ± 0.32
x1 = 0.00969 | 85.51 ± 0.33 | 85.11 ± 0.33 | 84.64 ± 0.33 | 84.42 ± 0.33 | 84.35 ± 0.33 | 84.37 ± 0.33 | 84.46 ± 0.33
x1 = 0.0118 | 87.08 ± 0.34 | 86.76 ± 0.34 | 86.37 ± 0.33 | 86.21 ± 0.33 | 86.16 ± 0.33 | 86.19 ± 0.33 | 86.22 ± 0.33
x1 = 0.01312 | 88 ± 0.34 | 87.75 ± 0.34 | 87.46 ± 0.34 | 87.33 ± 0.34 | 87.3 ± 0.34 | 87.32 ± 0.34 | 87.37 ± 0.34
x1 = 0.01647 | 90.68 ± 0.35 | 90.57 ± 0.35 | 90.49 ± 0.35 | 90.48 ± 0.35 | 90.51 ± 0.35 | 90.58 ± 0.35 | 90.44 ± 0.35
x1 = 0.01786 | 91.44 ± 0.35 | 91.39 ± 0.35 | 91.36 ± 0.35 | 91.4 ± 0.35 | 91.49 ± 0.35 | 91.6 ± 0.35 | 91.72 ± 0.35
x1 = 0.01996 | 92.94 ± 0.36 | 92.97 ± 0.36 | 93.07 ± 0.36 | 93.17 ± 0.36 | 93.26 ± 0.36 | 93.31 ± 0.36 | 93.32 ± 0.36
x1 = 0.02247 | 94.73 ± 0.37 | 94.84 ± 0.37 | 95.04 ± 0.37 | 95.24 ± 0.37 | 95.42 ± 0.37 | 95.55 ± 0.37 | 95.59 ± 0.37
x1 = 0.02729 | 98.3 ± 0.38 | 98.56 ± 0.38 | 99 ± 0.38 | 99.32 ± 0.38 | 99.54 ± 0.38 | 99.68 ± 0.39 | 99.81 ± 0.39
x1 = 0.0303 | 100.51 ± 0.39 | 100.88 ± 0.39 | 101.48 ± 0.39 | 101.9 ± 0.4 | 102.19 ± 0.4 | 102.38 ± 0.4 | 102.52 ± 0.4
x1 = 0.03518 | 103.98 ± 0.4 | 104.48 ± 0.41 | 105.27 ± 0.41 | 105.84 ± 0.41 | 106.24 ± 0.41 | 106.51 ± 0.41 | 106.68 ± 0.41
x1 = 0.0397 | 107.24 ± 0.42 | 107.83 ± 0.42 | 108.77 ± 0.42 | 109.44 ± 0.42 | 109.93 ± 0.42 | 110.24 ± 0.43 | 110.48 ± 0.43
x1 = 0.04518 | 111.01 ± 0.43 | 111.69 ± 0.43 | 112.79 ± 0.44 | 113.6 ± 0.44 | 114.17 ± 0.44 | 114.53 ± 0.44 | 114.82 ± 0.44
x1 = 0.05201 | 115.67 ± 0.45 | 116.48 ± 0.45 | 117.75 ± 0.46 | 118.68 ± 0.46 | 119.37 ± 0.46 | 119.87 ± 0.46 | 120.21 ± 0.47
x1 = 0.06018 | 121.38 ± 0.47 | 122.34 ± 0.47 | 123.83 ± 0.48 | 124.98 ± 0.48 | 125.84 ± 0.49 | 126.57 ± 0.49 | 126.88 ± 0.49
x1 = 0.07563 | 131.77 ± 0.51 | 132.81 ± 0.51 | 134.56 ± 0.52 | 135.97 ± 0.53 | 137.1 ± 0.53 | 137.96 ± 0.53 | 138.56 ± 0.54
x1 = 0.09777 | 146.15 ± 0.56 | 147.28 ± 0.57 | 149.31 ± 0.58 | 151.06 ± 0.58 | 152.51 ± 0.59 | 153.69 ± 0.6 | 154.59 ± 0.6
x1 = 0.1356 | 170.77 ± 0.66 | 171.98 ± 0.66 | 174.29 ± 0.68 | 176.42 ± 0.68 | 178.34 ± 0.69 | 180.03 ± 0.7 | 181.46 ± 0.71
x1 = 0.1978 | 210.08 ± 0.81 | 211.39 ± 0.82 | 213.91 ± 0.83 | 216.46 ± 0.84 | 218.95 ± 0.84 | 221.31 ± 0.86 | 223.41 ± 0.87
x1 = 0.3066 | 278.42 ± 1.1 | 279.68 ± 1.1 | 282.35 ± 1.1 | 285.3 ± 1.1 | 288.41 ± 1.1 | 291.49 ± 1.1 | 294.37 ± 1.1
x1 = 0.6924 | 513.75 ± 2 | 515.35 ± 2 | 519.97 ± 2 | 524.59 ± 2 | 529.47 ± 2.1 | 534.66 ± 2.1 | 538.64 ± 2.1
x1 = 1 | 686.95 ± 2.7 | 689.21 ± 2.7 | 693.95 ± 2.7 | 698.98 ± 2.7 | 704.91 ± 2.7 | 711.23 ± 2.7 | 716.97 ± 2.8

— the NIST ThermoML archive (doi:10.1016/j.tca.2004.11.001)
